Activity calls are given as the source filed them.
Columns and labels:
[1] = target: Heat shock protein HSP 90-alpha (Homo sapiens, UniProt P07900); assay: Luminescence-based dose response biochemical high throughput screening assay for inhibitors of the Heat Shock Protein 90 (HSP90). [Related pubchem assays: 1831 (Summary AID.), 1846 (Confirmation screen.), 1789 (Primary screen.)]
[2] = target: T1, Polyadenylate-binding protein 1 (Homo sapiens, UniProt P11940); assay: PABP1 MLLE–PAM2 interaction inhibitors, dose response, miRNA deadenylation inhibitor project, biochemical, fluorescence polarization, Cy5-PAM2 peptide, secondary (AID 602260); type: functional; settings: read-out: IC50_Mean
T1 sequence (P11940 whole entry): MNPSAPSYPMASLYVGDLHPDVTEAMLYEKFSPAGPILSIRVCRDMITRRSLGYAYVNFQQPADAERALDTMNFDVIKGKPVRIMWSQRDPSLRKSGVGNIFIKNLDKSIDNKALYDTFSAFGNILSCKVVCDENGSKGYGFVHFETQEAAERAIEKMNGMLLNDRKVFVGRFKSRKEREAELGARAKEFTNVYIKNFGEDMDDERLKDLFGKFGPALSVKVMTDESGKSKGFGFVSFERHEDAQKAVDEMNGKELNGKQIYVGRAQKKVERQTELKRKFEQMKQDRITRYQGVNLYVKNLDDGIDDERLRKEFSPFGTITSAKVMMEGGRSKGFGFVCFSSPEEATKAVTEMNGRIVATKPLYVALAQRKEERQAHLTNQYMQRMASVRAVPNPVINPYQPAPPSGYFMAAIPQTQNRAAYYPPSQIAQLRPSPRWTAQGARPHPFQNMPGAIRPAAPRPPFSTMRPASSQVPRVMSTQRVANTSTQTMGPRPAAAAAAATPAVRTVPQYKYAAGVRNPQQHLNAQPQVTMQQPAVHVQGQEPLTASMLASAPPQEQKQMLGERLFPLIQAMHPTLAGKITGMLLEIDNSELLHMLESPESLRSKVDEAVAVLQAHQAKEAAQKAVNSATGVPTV

[3] = target: T1, Polyadenylate-binding protein 1; assay: PABP1 MLLE–PAM2 binding inhibitor potency, dose response, biochemical, fluorescence polarization, FITC-PAM2 peptide (AID 602259); type: functional; settings: read-out: IC50_Mean
Cytochrome P450 2C9 = Cytochrome P450 2C9 (Homo sapiens, UniProt P11712)
Sequence of Cytochrome P450 2C9 (P11712 whole entry): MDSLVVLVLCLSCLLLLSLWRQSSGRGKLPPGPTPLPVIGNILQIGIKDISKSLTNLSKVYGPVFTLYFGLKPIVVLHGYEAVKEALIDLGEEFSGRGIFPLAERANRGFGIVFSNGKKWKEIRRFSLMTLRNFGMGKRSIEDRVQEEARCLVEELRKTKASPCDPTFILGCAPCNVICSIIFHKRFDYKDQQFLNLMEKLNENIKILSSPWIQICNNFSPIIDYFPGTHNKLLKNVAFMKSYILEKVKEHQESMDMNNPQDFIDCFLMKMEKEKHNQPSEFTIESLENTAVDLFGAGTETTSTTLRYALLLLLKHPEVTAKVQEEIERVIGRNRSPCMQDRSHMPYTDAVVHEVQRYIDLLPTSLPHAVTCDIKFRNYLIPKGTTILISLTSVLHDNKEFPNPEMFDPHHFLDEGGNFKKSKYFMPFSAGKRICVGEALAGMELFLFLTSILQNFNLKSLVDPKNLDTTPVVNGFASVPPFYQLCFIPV

[4] = target: Mitogen-activated protein kinase 10 (Homo sapiens, UniProt P53779); assay: Dose response biochemical screening assay for inhibitors of c-Jun N-Terminal Kinase 3 (JNK3). [Related pubchem assays: 746 ]
Sequence of Mitogen-activated protein kinase 10 (P53779 whole entry): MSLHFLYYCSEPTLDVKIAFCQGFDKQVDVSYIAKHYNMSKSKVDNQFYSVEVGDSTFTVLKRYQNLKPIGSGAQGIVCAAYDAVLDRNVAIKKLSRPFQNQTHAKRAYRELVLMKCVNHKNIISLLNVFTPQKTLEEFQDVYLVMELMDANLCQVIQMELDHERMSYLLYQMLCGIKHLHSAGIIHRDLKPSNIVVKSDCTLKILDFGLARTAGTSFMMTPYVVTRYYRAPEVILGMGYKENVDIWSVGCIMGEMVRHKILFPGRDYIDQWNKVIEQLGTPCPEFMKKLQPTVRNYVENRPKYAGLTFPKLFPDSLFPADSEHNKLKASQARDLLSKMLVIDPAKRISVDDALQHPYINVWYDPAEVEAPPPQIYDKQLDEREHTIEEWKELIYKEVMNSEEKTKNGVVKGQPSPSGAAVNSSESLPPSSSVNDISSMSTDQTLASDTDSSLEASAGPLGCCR

[5] = Luminescence Cell-Based Dose Response to Identify Activators of 5'UTR Stem-Loop Driven Prion Protein mRNA Translation in H4-C Neuroglioblastoma Cells. [Related pubchem assays: 1829 (Project Summary), 1814 (Primary HTS)]; type: functional
[6] = Luminescence Cell-Based Dose Confirmation HTS to Identify Activators of 5'UTR Stem-Loop Driven Alpha-Synuclein mRNA Translation in H4 Neuroglioblastoma Cells. [Related pubchem assays: 1829 (Project Summary), 1814 (Primary HTS)]; type: functional
[7] = Luminescence Cell-Based Dose Response HTS to Identify Activators of Luciferase Translation or Activity in H4 […] Cells. [Related pubchem assays: 1829 (Project Summary), 1814 (Primary HTS)]; type: functional
H4 = assay: Luminescence Cell-Based Dose Response HTS to Identify Activators of 5'UTR Stem-Loop Driven Prion Protein mRNA Translation in H4 Neuroglioblastoma Cells. [Related pubchem assays: 1829 (Project Summary), 1814 (Primary HTS)]; type: functional; settings: Homo sapiens
[8] = Luminescence Cell-Based Dose Response to Identify Activators of Luciferase Translation or Activity in H4-C Neuroglioblastoma Cells. [Related pubchem assays: 1829 (Project Summary), 1814 (Primary HTS)]; type: functional
[9] = Luminescence Cell-Based Dose Confirmation to Identify Activators of 5'UTR Stem-Loop Driven Alpha-Synuclein mRNA Translation in H4 Neuroglioblastoma Cells. [Related pubchem assays: 1829 (Project Summary), 1814 (Primary HTS)]; type: functional
[10] = target: T2, E3 ubiquitin-protein ligase XIAP (Homo sapiens, UniProt P98170); assay: Counter Screen using XIAP-Bir3 for Chemical Antagonists of Bir1/2 domains of IAP-family anti-apoptotic proteins. [Related pubchem assays (depositor defined):AID1018, AID1449, AID1514, AID1638, AID1749, AID1750, AID488957, AID488963]
T2 sequence (P98170 whole entry): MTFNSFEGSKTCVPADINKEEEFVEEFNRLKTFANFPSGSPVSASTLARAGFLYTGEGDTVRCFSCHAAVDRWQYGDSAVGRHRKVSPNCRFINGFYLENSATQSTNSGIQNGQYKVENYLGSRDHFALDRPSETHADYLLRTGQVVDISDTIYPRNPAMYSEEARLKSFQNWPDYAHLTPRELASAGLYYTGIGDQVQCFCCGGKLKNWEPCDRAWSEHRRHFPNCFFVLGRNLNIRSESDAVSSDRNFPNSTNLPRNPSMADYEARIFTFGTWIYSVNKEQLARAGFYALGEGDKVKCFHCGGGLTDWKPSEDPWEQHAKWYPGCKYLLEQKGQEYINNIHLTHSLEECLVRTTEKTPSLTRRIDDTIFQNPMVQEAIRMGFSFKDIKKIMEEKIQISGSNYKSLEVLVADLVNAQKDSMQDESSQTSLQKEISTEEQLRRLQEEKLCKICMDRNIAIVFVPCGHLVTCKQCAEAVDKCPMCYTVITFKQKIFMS

[11] = target: T2, E3 ubiquitin-protein ligase XIAP; assay: XIAP antagonists, biochemical, IAP family, fluorescence polarization (AID 1018); type: functional
Aspartyl aminopeptidase = Aspartyl aminopeptidase (Plasmodium falciparum 3D7, UniProt Q8I2J3); assay: Counterscreen for inhibitors of M1 and M17 aminopeptidases: QFRET-based biochemical high throughput dose response assay for inhibitors of the Plasmodium falciparum M18 Aspartyl Aminopeptidase (PFM18AAP). [Related PubChem assays: 1619 (Screening assay (M17LAP inhibitors).), 1445 (Screening assay (M1AAP inhibitors).)]
Sequence of Aspartyl aminopeptidase (Q8I2J3 whole entry): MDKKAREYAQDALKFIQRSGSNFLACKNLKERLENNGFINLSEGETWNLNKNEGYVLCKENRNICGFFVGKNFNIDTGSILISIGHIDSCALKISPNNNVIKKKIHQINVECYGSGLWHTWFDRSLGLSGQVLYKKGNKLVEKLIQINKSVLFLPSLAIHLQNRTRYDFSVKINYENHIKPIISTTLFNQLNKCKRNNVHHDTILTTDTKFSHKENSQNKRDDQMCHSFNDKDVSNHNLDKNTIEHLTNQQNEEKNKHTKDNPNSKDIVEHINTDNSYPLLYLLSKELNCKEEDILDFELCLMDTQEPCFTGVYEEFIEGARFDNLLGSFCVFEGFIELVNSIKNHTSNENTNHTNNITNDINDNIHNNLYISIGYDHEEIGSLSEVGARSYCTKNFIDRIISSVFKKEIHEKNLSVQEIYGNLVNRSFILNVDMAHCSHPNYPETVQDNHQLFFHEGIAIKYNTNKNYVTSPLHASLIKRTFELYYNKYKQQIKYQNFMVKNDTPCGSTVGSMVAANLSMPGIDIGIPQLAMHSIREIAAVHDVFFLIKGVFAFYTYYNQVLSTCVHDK

Aminopeptidase N = target: T3, Aminopeptidase N (Plasmodium falciparum FcB1/Columbia, UniProt O96935); assay: P. falciparum M1AAP inhibitors, biochemical, fluorogenic H-Leu-NHMec substrate, 1536-well (AID 1445); parameters: species or system Plasmodium falciparum 3D7, 3D7
T3 sequence (O96935 whole entry): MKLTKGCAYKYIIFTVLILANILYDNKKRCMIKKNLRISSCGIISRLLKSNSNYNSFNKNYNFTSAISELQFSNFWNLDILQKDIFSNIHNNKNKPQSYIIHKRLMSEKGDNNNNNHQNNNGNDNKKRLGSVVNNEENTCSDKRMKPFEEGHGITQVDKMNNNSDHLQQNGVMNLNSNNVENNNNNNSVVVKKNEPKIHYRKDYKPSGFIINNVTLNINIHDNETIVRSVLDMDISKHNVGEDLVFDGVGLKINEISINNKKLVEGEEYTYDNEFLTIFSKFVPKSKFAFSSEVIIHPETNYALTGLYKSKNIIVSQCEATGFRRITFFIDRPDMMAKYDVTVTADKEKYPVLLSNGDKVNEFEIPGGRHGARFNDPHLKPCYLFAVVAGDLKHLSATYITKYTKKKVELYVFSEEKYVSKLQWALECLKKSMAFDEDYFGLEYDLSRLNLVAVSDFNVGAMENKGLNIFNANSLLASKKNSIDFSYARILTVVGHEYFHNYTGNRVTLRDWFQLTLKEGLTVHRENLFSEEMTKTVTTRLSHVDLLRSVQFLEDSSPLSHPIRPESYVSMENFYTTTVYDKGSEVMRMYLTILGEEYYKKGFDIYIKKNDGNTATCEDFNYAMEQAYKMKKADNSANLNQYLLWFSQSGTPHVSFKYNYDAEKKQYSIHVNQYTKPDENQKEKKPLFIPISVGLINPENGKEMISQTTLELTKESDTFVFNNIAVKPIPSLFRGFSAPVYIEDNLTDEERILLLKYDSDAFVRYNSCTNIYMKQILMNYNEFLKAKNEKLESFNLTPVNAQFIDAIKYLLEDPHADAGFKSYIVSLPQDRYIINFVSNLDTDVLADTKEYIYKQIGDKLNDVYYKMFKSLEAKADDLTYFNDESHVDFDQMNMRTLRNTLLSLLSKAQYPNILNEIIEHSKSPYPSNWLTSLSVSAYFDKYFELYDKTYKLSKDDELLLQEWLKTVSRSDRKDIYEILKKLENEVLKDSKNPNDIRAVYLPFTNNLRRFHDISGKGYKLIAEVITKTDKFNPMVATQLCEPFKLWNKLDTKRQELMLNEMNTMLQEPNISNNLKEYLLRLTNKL

Procathepsin L = Procathepsin L (Homo sapiens, UniProt P07711); assay: cathepsin L inhibitors, dose response, counter-screen for M1/M17 aminopeptidase inhibitor project, biochemical, QFRET, 1536-well (AID 2214)
Sequence of Procathepsin L (P07711 whole entry): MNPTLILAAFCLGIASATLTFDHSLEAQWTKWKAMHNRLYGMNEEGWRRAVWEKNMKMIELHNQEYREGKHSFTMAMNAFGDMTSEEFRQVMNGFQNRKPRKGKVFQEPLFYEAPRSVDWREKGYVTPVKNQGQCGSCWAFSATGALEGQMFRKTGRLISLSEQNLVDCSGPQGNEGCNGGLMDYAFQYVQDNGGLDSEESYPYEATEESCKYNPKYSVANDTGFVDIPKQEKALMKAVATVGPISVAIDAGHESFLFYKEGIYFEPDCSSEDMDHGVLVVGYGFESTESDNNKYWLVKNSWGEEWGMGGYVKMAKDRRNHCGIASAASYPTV

[12] = target: T4, Ubiquitin-conjugating enzyme E2 N (Homo sapiens, UniProt P61088); type: functional;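 note: Dose-response confirmation in a TR-FRET assay detecting UBC13-driven polyubiquitin chain formation, inhibition measured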
T4 sequence (P61088 whole entry): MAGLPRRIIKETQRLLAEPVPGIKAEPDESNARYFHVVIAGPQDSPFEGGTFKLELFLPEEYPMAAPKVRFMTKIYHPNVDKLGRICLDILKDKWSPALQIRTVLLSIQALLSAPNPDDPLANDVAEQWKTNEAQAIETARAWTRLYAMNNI

[13] = target: T5, Carboxy-terminal domain RNA polymerase II polypeptide A small phosphatase 1 (Homo sapiens, UniProt Q9GZU7); assay: inhibitors of CTDSP1, concentration-response testing, biochemical assay, absorbance-based, actives from ultra-high-throughput screening (AID 540297); type: functional
T5 sequence (Q9GZU7 whole entry): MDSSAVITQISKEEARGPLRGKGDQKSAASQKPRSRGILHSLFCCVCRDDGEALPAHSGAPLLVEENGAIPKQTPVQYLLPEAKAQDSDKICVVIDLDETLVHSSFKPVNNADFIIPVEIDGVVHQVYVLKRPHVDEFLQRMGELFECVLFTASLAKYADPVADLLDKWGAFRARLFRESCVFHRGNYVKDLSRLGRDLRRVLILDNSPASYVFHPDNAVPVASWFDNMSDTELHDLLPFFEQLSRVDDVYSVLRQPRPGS

Bcl-2-like protein 10 = target: T6, Bcl-2-like protein 10 (Homo sapiens, UniProt Q9HD36); assay: displacers of TR3 peptide from Bcl-B, primary screen, selectivity assay for Bfl-1 inhibitor project, biochemical, fluorescence polarization, FITC-TR3 peptide (AID 748);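 note: fluorescence polarization from a fluorescein-labelled TR3 peptide binding purified Bcl-B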
T6 sequence (Q9HD36 whole entry): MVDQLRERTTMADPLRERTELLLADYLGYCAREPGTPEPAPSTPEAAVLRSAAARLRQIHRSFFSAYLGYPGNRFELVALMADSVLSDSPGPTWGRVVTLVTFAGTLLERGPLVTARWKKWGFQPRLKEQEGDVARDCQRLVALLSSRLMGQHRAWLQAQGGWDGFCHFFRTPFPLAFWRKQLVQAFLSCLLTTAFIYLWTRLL

[14] = target: Protein-tyrosine kinase 2-beta (Homo sapiens, UniProt Q14289);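 note: potency of inhibitors of PYK2 kinase phosphorylation of poly-GT substrate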
Sequence of Protein-tyrosine kinase 2-beta (Q14289 whole entry): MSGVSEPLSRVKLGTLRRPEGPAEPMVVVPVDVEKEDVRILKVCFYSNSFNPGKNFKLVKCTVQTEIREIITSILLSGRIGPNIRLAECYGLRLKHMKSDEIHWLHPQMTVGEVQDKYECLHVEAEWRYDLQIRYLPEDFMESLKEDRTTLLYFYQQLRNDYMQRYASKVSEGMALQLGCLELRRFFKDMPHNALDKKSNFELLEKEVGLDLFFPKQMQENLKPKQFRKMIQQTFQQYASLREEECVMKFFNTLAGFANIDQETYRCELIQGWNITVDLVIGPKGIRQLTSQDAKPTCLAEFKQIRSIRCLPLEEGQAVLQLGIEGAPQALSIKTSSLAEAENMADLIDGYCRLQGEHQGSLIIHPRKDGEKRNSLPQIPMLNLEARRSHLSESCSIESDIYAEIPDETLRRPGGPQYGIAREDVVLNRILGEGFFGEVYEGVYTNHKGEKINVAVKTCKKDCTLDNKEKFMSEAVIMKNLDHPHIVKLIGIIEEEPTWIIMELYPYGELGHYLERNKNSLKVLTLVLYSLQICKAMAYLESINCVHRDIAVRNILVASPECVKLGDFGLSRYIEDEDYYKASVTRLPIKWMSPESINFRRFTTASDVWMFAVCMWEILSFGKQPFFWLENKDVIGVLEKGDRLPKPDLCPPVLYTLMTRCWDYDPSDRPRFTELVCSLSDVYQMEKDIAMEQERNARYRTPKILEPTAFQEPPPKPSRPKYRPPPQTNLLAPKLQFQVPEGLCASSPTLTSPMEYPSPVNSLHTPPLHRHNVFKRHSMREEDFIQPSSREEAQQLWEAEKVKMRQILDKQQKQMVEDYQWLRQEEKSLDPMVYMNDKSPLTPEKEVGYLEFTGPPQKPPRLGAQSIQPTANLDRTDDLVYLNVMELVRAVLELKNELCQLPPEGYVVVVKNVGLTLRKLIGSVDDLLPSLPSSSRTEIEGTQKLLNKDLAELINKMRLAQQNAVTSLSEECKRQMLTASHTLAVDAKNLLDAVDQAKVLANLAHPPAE

[15] = target: Eukaryotic translation initiation factor 4E (Mus musculus, UniProt P63073); assay: eIF4E–eIF4G protein interaction inhibitors, dose response, biochemical, TR-FRET (AID 855); type: functional;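 note: potency for disrupting eIF4E binding to eIF4GI seen as loss of FRET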
Sequence of Eukaryotic translation initiation factor 4E (P63073 whole entry): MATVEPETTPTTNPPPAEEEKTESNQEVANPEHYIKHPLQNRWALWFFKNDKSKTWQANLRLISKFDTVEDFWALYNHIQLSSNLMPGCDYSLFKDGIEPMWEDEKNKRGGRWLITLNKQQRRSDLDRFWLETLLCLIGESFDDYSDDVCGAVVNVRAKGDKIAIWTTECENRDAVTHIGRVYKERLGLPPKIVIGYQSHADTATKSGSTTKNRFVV

## CCN(CC)c1ccc(SS(=O)(=O)O)cc1
[1]
  IC50: 4.53 µM (active)
[2]
  IC50: > 66 µM (inactive)
[3]
  IC50: > 66 µM (inactive)
Cytochrome P450 2C9
  AC50: 5.01 µM (inconclusive)

## COC(=O)c1cccc(Cn2nnc3ccccc3c2=O)c1
[4]
  IC50: 78.8 µM (not active)

## Cn1cc(Br)c(C(=O)Nc2sc3c(c2C(N)=O)CCCC3)n1
[5]
  EC50: > 12 µM (not active)
[6]
  EC50: 13.3 µM (active)
[7]
  EC50: 13.6 µM (active)
H4
  EC50: 0.117 µM (active)
[8]
  EC50: > 12 µM (not active)
[9]
  EC50: > 12 µM (not active)

## CCCN1Cc2cccc(C(=O)Nc3ccc4c(c3)OCO4)c2C1=O
[10]
  IC50: > 100 µM (inactive)
[11]
  IC50: > 100 µM (not active)

## O=C(O)CCC(=O)N1N=C(c2c(-c3ccccc3)c3cc(Cl)ccc3[nH]c2=O)CC1c1ccco1 (configuration not stated)
Aspartyl aminopeptidase
  IC50: > 73.5 µM (not active)
Aminopeptidase N
  IC50: 13 µM (active)
Procathepsin L
  IC50: > 59.6 µM (not active)

## O=C(CCCCCn1c(SCc2ccncc2)nc2ccccc2c1=O)NCc1ccco1
[4]
  IC50: 73.1 µM (not active)
[12]
  IC50: > 20 µM (inactive)
[13]
  IC50: 35.8 µM (active)

## Cc1cc(N)ccc1N1CCCC1
Bcl-2-like protein 10
  IC50: 0.963 µM (active)
[14]
  IC50: 1.82 µM (active)
[15]
  IC50: 33.1 µM (inactive)
